These are literature values, as cited in US20130136704A1, “P-MENTHANE-3,8-DIOL ISOMER MIXTURE, COMPOSITION COMPRISING THE SAME, AND PRODUCTS COMPRISING THE MIXTURE OR COMPOSITION” (TAKASAGO INTERNATIONAL CORPORATION, priority 2011, published 2013).

Each structure is given as a SMILES string.

The conditions of the data set: Patent Literature 2.

As to `CC1CCC(C(C)(C)O)C(O)C1` (stereo not shown) [p-menthane-3,8-diol], the “concentration of p-menthane-3,8-diol in solution at which it is in a supersaturation state and crystals precipitate” value was at least 60%.
